Blank lines part the entries; values can stand above or below the molecule they belong to.
Columns and labels:
Assay type in all cases: physicochemical
[1] = Loose bulk density of the powder
[2] = Average diameter of agglomerates; settings: agglomerates as obtained after drying
[3] = Tapped bulk density of the powder
[4] = Compressibility of the powder
[5] = Particle size distribution
[6] = Table 1, agglomerated vs needle form
[7] = agitator 3000 RPM, 0.9 mm nozzle
[8] = High flow (solution 15 l/h, acetone 312 l/h)
[9] = Low flow (flows decreased by a factor 2)

Molecule: O=C(O)[C@H]1/C(=C/CO)O[C@@H]2CC(=O)N21 [Agglomerates of potassium clavulanate, potassium clavulanate]
Loose bulk density [1, 6]: 0.49 g/mL | average diameter ([2]; listed as Example 8): 40-200 μm | Tapped bulk density [3, 6]: 0.68 g/mL | Compressibility [4, 6]: 28%

Molecule: O=C(O)[C@H]1/C(=C/CO)O[C@@H]2CC(=O)N21 [Example 1, potassium clavulanate]
average diameter [2]: 100-1000 μm

Molecule: O=C(O)[C@H]1/C(=C/CO)O[C@@H]2CC(=O)N21 [Example 2, potassium clavulanate]
average diameter [2]: 500-1500 μm

Molecule: O=C(O)[C@H]1/C(=C/CO)O[C@@H]2CC(=O)N21 [Example 3, potassium clavulanate]
average diameter [2]: 1000 μm

Molecule: O=C(O)[C@H]1/C(=C/CO)O[C@@H]2CC(=O)N21 [Example 4, potassium clavulanate]
average diameter [2]: 500-1000 μm

Molecule: O=C(O)[C@H]1/C(=C/CO)O[C@@H]2CC(=O)N21 [Example 5, potassium clavulanate]
average diameter [2]: 50-250 μm

Molecule: O=C(O)[C@H]1/C(=C/CO)O[C@@H]2CC(=O)N21 [Example 6, potassium clavulanate]
average diameter [2]: 10-200 μm

Molecule: O=C(O)[C@H]1/C(=C/CO)O[C@@H]2CC(=O)N21 [Example 7, potassium clavulanate]
average diameter [2]: 500-1500 μm

Molecule: O=C(O)[C@H]1/C(=C/CO)O[C@@H]2CC(=O)N21 [Example 9, potassium clavulanate]
Loose bulk density [1, 7]: 0.22 g/mL | particle size distribution 75-150 μm ([5]; Table 2, 3000 RPM): 43.3 volume % | particle size distribution 150-250 μm ([5]; Table 2, 3000 RPM): 8 volume % | particle size distribution 250-500 μm ([5]; Table 2, 3000 RPM): 1 volume % | particle size distribution 500-710 μm ([5]; Table 2, 3000 RPM): 0.2 volume % | particle size distribution <75 μm ([5]; Table 2, 3000 RPM): 46.3 volume % | particle size distribution >710 μm ([5]; Table 2, 3000 RPM): 0.1 volume % | Tapped bulk density [3, 7]: 0.30 g/mL | Compressibility [4, 7]: 27%

Molecule: O=C(O)[C@H]1/C(=C/CO)O[C@@H]2CC(=O)N21 [Example 10, potassium clavulanate]
Loose bulk density ([1]; agitator speed 1000 RPM): 0.39 g/mL | Loose bulk density ([1]; agitator speed 2000 RPM): 0.42 g/mL | particle size distribution 75-150 μm ([5]; agitator speed 1000 RPM): 6.5 volume % | particle size distribution 150-250 μm ([5]; agitator speed 1000 RPM): 20.7 volume % | particle size distribution 250-500 μm ([5]; agitator speed 1000 RPM): 60.8 volume % | particle size distribution 500-710 μm ([5]; agitator speed 1000 RPM): 6.1 volume % | particle size distribution <75 μm ([5]; agitator speed 1000 RPM): 5.1 volume % | particle size distribution >710 μm ([5]; agitator speed 1000 RPM): 0.2 volume % | particle size distribution 75-150 μm ([5]; agitator speed 2000 RPM): 2.4 volume % | particle size distribution 150-250 μm ([5]; agitator speed 2000 RPM): 9.5 volume % | particle size distribution 250-500 μm ([5]; agitator speed 2000 RPM): 57.3 volume % | particle size distribution 500-710 μm ([5]; agitator speed 2000 RPM): 27 volume % | particle size distribution <75 μm ([5]; agitator speed 2000 RPM): 1.8 volume % | particle size distribution >710 μm ([5]; agitator speed 2000 RPM): 1.5 volume % | Tapped bulk density ([3]; agitator speed 1000 RPM): 0.44 g/mL | Tapped bulk density ([3]; agitator speed 2000 RPM): 0.47 g/mL | Compressibility ([4]; agitator speed 1000 RPM): 11% | Compressibility ([4]; agitator speed 2000 RPM): 11%

Molecule: O=C(O)[C@H]1/C(=C/CO)O[C@@H]2CC(=O)N21 [Example 11, potassium clavulanate]
Loose bulk density [1, 8]: 0.27 g/mL | Loose bulk density [1, 9]: 0.35 g/mL | particle size distribution 75-150 μm ([5]; High flow): 41.2 volume % | particle size distribution 150-250 μm ([5]; High flow): 9.3 volume % | particle size distribution 250-500 μm ([5]; High flow): 0.3 volume % | particle size distribution 500-710 μm ([5]; High flow): 0 volume % | particle size distribution <75 μm ([5]; High flow): 48.7 volume % | particle size distribution >710 μm ([5]; High flow): 0 volume % | particle size distribution 75-150 μm ([5]; Low flow): 50.4 volume % | particle size distribution 150-250 μm ([5]; Low flow): 1.1 volume % | particle size distribution 250-500 μm ([5]; Low flow): 0.6 volume % | particle size distribution 500-710 μm ([5]; Low flow): 0.4 volume % | particle size distribution <75 μm ([5]; Low flow): 48.8 volume % | particle size distribution >710 μm ([5]; Low flow): 0 volume % | Tapped bulk density [3, 8]: 0.36 g/mL | Tapped bulk density [3, 9]: 0.44 g/mL | Compressibility [4, 8]: 25% | Compressibility [4, 9]: 20%

Molecule: O=C(O)[C@H]1/C(=C/CO)O[C@@H]2CC(=O)N21 [Needles of Potassium clavulanate, potassium clavulanate, reference compound]
Loose bulk density [1, 6]: 0.18 g/mL | Tapped bulk density [3, 6]: 0.36 g/mL | Compressibility [4, 6]: 50%

Loose bulk density ([1]; Nozzle diameter 0.9 mm): 0.22 g/mL | Loose bulk density ([1]; Nozzle diameter 1.2 mm): 0.36 g/mL | particle size distribution 75-150 μm ([5]; Nozzle diameter 0.9 mm): 43.3 volume % | particle size distribution 150-250 μm ([5]; Nozzle diameter 0.9 mm): 8 volume % | particle size distribution 250-500 μm ([5]; Nozzle diameter 0.9 mm): 1 volume % | particle size distribution 500-710 μm ([5]; Nozzle diameter 0.9 mm): 0.2 volume % | particle size distribution <75 μm ([5]; Nozzle diameter 0.9 mm): 46.3 volume % | particle size distribution >710 μm ([5]; Nozzle diameter 0.9 mm): 0.1 volume % | particle size distribution 75-150 μm ([5]; Nozzle diameter 1.2 mm): 50.6 volume % | particle size distribution 150-250 μm ([5]; Nozzle diameter 1.2 mm): 31.3 volume % | particle size distribution 250-500 μm ([5]; Nozzle diameter 1.2 mm): 1.9 volume % | particle size distribution 500-710 μm ([5]; Nozzle diameter 1.2 mm): 0 volume % | particle size distribution <75 μm ([5]; Nozzle diameter 1.2 mm): 15.9 volume % | particle size distribution >710 μm ([5]; Nozzle diameter 1.2 mm): 0.3 volume % | Tapped bulk density ([3]; Nozzle diameter 0.9 mm): 0.3 g/mL | Tapped bulk density ([3]; Nozzle diameter 1.2 mm): 0.44 g/mL
Molecule: potassium clavulanate [Example 12]

Reference: patent US20110045082A1, “AGGLOMERATES BY CRYSTALLISATION” (priority 1999, published 2011)
